# Experimental data: patent US9970037B2, “Methods and materials for making simvastatin and related compounds” (The Regents of the University of California, priority 2006, dated 2018)
# Values joined by “and” are separate entries in the source; they are usually repeats but may differ in a detail not shown here. Equal values may be shown once.
# Experiments:
# [1] = target: T1, LovD (Aspergillus terreus, UniProt Q9Y7D1); settings: label = product formed
# T1 sequence (Q9Y7D1 1-413): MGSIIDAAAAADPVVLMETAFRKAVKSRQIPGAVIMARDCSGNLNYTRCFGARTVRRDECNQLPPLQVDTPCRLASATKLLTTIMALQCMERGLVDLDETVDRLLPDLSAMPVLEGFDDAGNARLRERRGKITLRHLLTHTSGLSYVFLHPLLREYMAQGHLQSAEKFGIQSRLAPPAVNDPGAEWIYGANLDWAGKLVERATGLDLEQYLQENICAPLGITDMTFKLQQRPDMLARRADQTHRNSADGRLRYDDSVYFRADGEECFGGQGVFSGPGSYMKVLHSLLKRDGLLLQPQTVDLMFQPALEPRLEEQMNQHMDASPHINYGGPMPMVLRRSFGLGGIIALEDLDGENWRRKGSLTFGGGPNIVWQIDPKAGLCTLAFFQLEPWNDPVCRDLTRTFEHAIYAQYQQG
# Protocol: Assay conditions: 1 mM monacolin J, 10 mM acyl-SNAC, 100 uM LovD, 50 mM HEPES, pH 7.9, 25 degrees C., 6 hrs.
# [2] = test system: YT2/pAW31; assay: Whole cell biocatalysis with ΔbioH E. coli overexpressing LovD; type: cell-based, Escherichia coli; settings: 15 mM MJ acid, 25 mM DMB-S-MMP, less than 12 hours
# Protocol: Whole-cell catalytic synthesis of simvastatin acid from MJ acid and DMB-S-MMP were performed as described (see, e.g., Xie et al., (2007) Appl Environ Microbiol 73: 2054-2060). The E. coli BL21(DE3)/pAW31 and YT2/pAW31 strains were cultured side-by-side for comparison. A single colony of the freshly transformed strains was used to inoculate a 5 mL LB culture supplemented with 35 mg/L kanamycin and grown overnight at 37° C. The next morning, 100 μL of the overnight culture was inoculated into 50 mL cultures containing LB broth, F1 minimal medium and F1 medium supplemented with 0.15 mg/L biotin. Growth rates were monitored by periodically measuring the OD600 reading. When OD600 reached ˜0.5, 100 μM IPTG was added to the culture and expression of LovD was performed at 20° C. for 16 hours. To mimic high density fermentation conditions, the cells were concentrated 10-fold before addition of substrates. Typically, a 14 mL aliquot of the culture was transferred to a 15 mL centrifuge tube and the cells were collected by centrifugation (4° C., 4000 g, 10 minutes). The cell pellet was gently resuspended in 1316 μl of the supernatant, followed by addition of 84 μl of a MJ acid stock solution (250 mM in H2O) (final concentration 15 mM). The concentrated culture was then separated into seven 200 μL samples and 1.2 μL of pure DMB-S-MMP was added to each sample (final concentration ˜25 mM). […]
# [3] = test system: E. coli BL21(DE3)/pAW31; assay: Whole cell biocatalysis with E. coli overexpressing LovD; type: cell-based, Escherichia coli
# Protocol: The BL21(DE3)/pAW31 overexpression strain was grown in a shake flask (200 mL) to an OD600 of 1.0, at which time 1 mM IPTG, 0.8 mM monacolin J and 4 mM of either benzoyl-SNAC or benzoyl-SMTG were added to the culture. Expression of LovD and bioconversion was performed at 18° C. The culture was extracted and analyzed for the formation of 8-benzoyl-monacolin J. When supplemented with benzoyl-SNAC, 84% conversion of monacolin J was detected within 20 hours post-induction. The product was lactonized and purified by a single silica-gel chromatography step. The NMR spectra confirmed the regioselective benzoylation of the C8 hydroxyl group as the diagnostic H8 multiplet is shifted downfield to δ 5.61.
# Fermentation conditions: 500 mL culture with LB media with 30 mg/L kanamycin. At OD600 of 1.0, cells were concentrated to a final OD600 of 5.0 and induced with 1 mM IPTG. Substrates monacolin J and α-dimethylbutyryl-SNAC were added to a final concentration of 1 mM and 4 mM. At different time points, culture samples were collected, centrifuged, filtered and injected on to HPLC (20 μL). Extraction conditions: When maximum conversion was reached, the broth was acidified to pH of 2.0, extracted with ethyl acetate, dried and redissolved in toluene.
# Whole-cell catalytic synthesis of simvastatin acid from MJ acid and DMB-S-MMP were performed as described (see, e.g., Xie et al., (2007) Appl Environ Microbiol 73: 2054-2060). The E. coli BL21(DE3)/pAW31 and YT2/pAW31 strains were cultured side-by-side for comparison. A single colony of the freshly transformed strains was used to inoculate a 5 mL LB culture supplemented with 35 mg/L kanamycin and grown overnight at 37° C. The next morning, 100 μL of the overnight culture was inoculated into 50 mL cultures containing LB broth, F1 minimal medium and F1 medium supplemented with 0.15 mg/L biotin. Growth rates were monitored by periodically measuring the OD600 reading. When OD600 reached ˜0.5, 100 μM IPTG was added to the culture and expression of LovD was performed at 20° C. for 16 hours. To mimic high density fermentation conditions, the cells were concentrated 10-fold before addition of substrates. Typically, a 14 mL aliquot of the culture was transferred to a 15 mL centrifuge tube and the cells were collected by centrifugation (4° C., 4000 g, 10 minutes). The cell pellet was gently resuspended in 1316 μl of the supernatant, followed by addition of 84 μl of a MJ acid stock solution (250 mM in H2O) (final concentration 15 mM). The concentrated culture was then separated into seven 200 μL samples and 1.2 μL of pure DMB-S-MMP was added to each sample (final concentration ˜25 mM). The culture was then shaken at 300 rpm at room temperature. At each time point, a total extraction was performed by adding 10 μL 20% SDS to lyse the cells, followed by liquid-liquid extraction with 500 μL EA/1% AcOH. The organic phase was removed, evaporated, and redissolved in 50 μL ACN for HPLC analysis. For the BL21(DE3) sample, an additional 1.2 μL aliquot of DMB-S-MMP was added after 12 hours to replenish the hydrolyzed substrates.
# The E. coli BL21(DE3)/pAW31 strain was grown in LB medium at 37° C. to an OD600 of 0.5, at which time 100 μM IPTG was added to the culture and expression was performed at RT for 16 hours. A 10 ml culture was transferred to a 15 mL centrifuge tube. The cells were collected by centrifugation (4000 g, 10 minutes). The cell pellet was resuspended in 957 μl of the supernatant. The pH was adjusted to pH 7.9 with 1.0 N NaOH, followed by addition of 33 μl 450 mM MJ (final concentration 15 mM) and 6 μl pure DMB-S-MMP (final concentration ˜25 mM). The culture was then shaken at 300 rpm at room temperature. At each time point, a 4 μL aliquot was removed from the reaction mixture, quenched in 300 μL ethyl acetate containing 1% TFA.
# [4] = test system: E. coli; assay: Whole-cell based hydrolysis / stability of thioester in E. coli cultures; set-up: species or system Escherichia coli; settings: BL21(DE3)/pAW31 culture, 18° C., 24 hours
# Protocol: The selected 57 mutants from the Keio collection together with BW25113, BL21(DE3) and BL21(DE3)/pAW31 were grown to saturation in a 96-well deep well plate in 1 mL LB media at 37° C. Neat DMB-S-MMP (5 μL) was added to each culture with a final concentration of 20 mM. […] The organic phase was dried, redissolved in 20 μL acetonitrile (CH3CN), and 1 μL was spotted on a TLC plate (silica gel 60 F254). The TLC plates were developed with 20% EA in hexane and visualized with iodine.
# Analysis of the compounds were also performed with HPLC using an analytical C18 column (Alltech Apollo 5 u, 150 mm×4.6 mm); linear gradient: 60% CH3CN in water (0.1% trifluoroacetic acid [TFA]) to 95% CH3CN in water (0.1% TFA) over 5 min, 95% CH3CN in water (0.1% TFA) for 10 minutes, with a flow rate of 1 mL/min. HPLC retention times (tR) were as follows: MJ lactone form: 3.40 min; DMB-S-MPA: 3.82 min; DMB-S-MMP: 6.80 min; simvastatin lactone form: 8.45 min. Both MJ and simvastatin acids were lactonized before HPLC analysis.
# The mutants, wild type […] and BL21(DE3) were grown to saturation in LB broth in a 96-well plate. […] The cultures were acidified, extracted with ethyl acetate, and the organic phases were analyzed by thin layer chromatography (TLC) using a mobile phase (20% ethyl acetate in hexane) that enabled separation of DMB-S-MMP and DMB-S-MPA (FIG. 14A). […]
# [5] = substrate: CC[C@H](C)C(=O)O[C@H]1C[C@@H](C)C=C2C=C[C@H](C)[C@H](CC[C@@H]3C[C@@H](O)CC(=O)O3)[C@H]21; assay: LovD catalyzed hydrolysis of lovastatin / simvastatin to monacolin J, HPLC; type: biochemical, Aspergillus terreus; settings: other: statin as the only substrate; pH 7.9; 25.0 °C
# Protocol: FIG. 5. […] (B) Conversion as a function of time for (⋄) butyryl-CoA (♦) butyryl-SNAC, (▪) butyryl-SMTG. The apparent kcat values reported throughout the text are initial turnover rates in the linear range. (C) Michaelis-Menten plot of LovD catalyzed hydrolysis of lovastatin to monacolin J. The reaction progress is monitored by HPLC. kcat: 0.21±0.01 min^−1; Km: 0.56±0.05 mM.
# As shown in FIG. 5A (trace a), 87% conversion of monacolin J to 4 was observed after 10 hours using butyryl-CoA as an acyl donor. […] The observed 87% conversion is likely approaching equilibrium as evident in FIG. 5B. To examine the biochemical nature of the equilibrium conversion, we assayed whether LovD also catalyzes the reverse, hydrolysis reaction.
# [6] = substrate: CCC(C)(C)C(=O)SCCC(=O)OC; assay: LovD transacylation assay: acyl transfer from acyl thioester to C8 hydroxyl of monacolin J, HPLC; type: biochemical, Aspergillus terreus; settings: other: monacolin J fixed at 2 mM; DMB-S-MMP 0.2-10 mM, 5% DMSO; pH 7.9
# Protocol: We first examined if an acyl-CoA can be used as substrate for the transacylation reaction. The uninterrupted gene of LovD was amplified from A. terreus genomic DNA using splice by overlap extension PCR and was inserted into the pET28a expression vector. Overexpression of soluble, N-terminal 6×His fusion LovD was performed in E. coli strain BL21(DE3)/pAW31. LovD was purified using Nickel-NTA affinity column to homogeneity (final yield˜40 mg/L). The substrate monacolin J (1 mM) was prepared through the LiOH hydrolysis of lovastatin and was added to a reaction mixture containing pure LovD (10 μM) and butyryl-CoA (4 mM), which is a commercially available acyl-CoA that best mimics the natural α-methylbutyrate side chain. The reaction mixture was incubated at room temperature, extracted with ethyl acetate and analyzed by HPLC and LC-MS (FIG. 5).
# We assayed the tolerance of LovD towards different acyl substituents by performing the transacylation assay with various commercially available acyl-CoAs (Table 1A). […]
# Expression and purification of LovD has been previously described in detail (see, e.g., Xie et al., 2006, Chem Biol 13: 1161-1169). […] The initial velocities (ki) of the acyl substrates were determined with 10 μM LovD, 1 mM monacolin J and 4 mM of the thioester. […] The percent conversion of monacolin J to simvastatin was determined by HPLC analysis (C18). […]
molecule,measurement,setting,value
CCC(C)(C)C(=O)OC1CC(O)C=C2C=CC(C)C(CCC(O)CC(O)CC(=O)O)C21 (centres unmarked) [huvastatin],apparent turnover rate for synthesis from tetra-ol 7 using the corresponding acyl-thioester,[1],0.03 min⁻¹
"CCC(C)(C)C(=O)SCCC(=O)OC [DMB-S-MMP, α-dimethylbutyryl-S-methyl-mercaptopropionate]","conversion of MJ acid to simvastatin acid, whole cell",[2],> 99%
same,"conversion of monacolin J to simvastatin, whole cell","[3]; 15 mM monacolin J, 25 mM DMB-S-MMP, cells concentrated 10×, room temperature, 24 hours",99% and > 99%
COC(=O)CSC(=O)c1ccccc1 [benzoyl-SMTG],stability of acyl donor in E. coli culture,[4],rapidly degraded
same,conversion of monacolin J (benzoylation) in vivo,"[3]; 0.8 mM monacolin J, 4 mM acyl donor, 18° C., within 20 hours post-induction",40%
"LovD (Aspergillus terreus) (protein, 6xHis (N); made in house; host or cells: E. coli BL21(DE3)/pAW31 (pET28a)) MGSIIDAAAAADPVVLMETAFRKAVKSRQIPGAVIMARDCSGNLNYTRCFGARTVRRDECNQLPPLQVDTPCRLASATKLLTTIMALQCMERGLVDLDETVDRLLPDLSAMPVLEGFDDAGNARLRERRGKITLRHLLTHTSGLSYVFLHPLLREYMAQGHLQSAEKFGIQSRLAPPAVNDPGAEWIYGANLDWAGKLVERATGLDLEQYLQENICAPLGITDMTFKLQQRPDMLARRADQTHRNSADGRLRYDDSVYFRADGEECFGGQGVFSGPGSYMKVLHSLLKRDGLLLQPQTVDLMFQPALEPRLEEQMNQHMDASPHINYGGPMPMVLRRSFGLGGIIALEDLDGENWRRKGSLTFGGGPNIVWQIDPKAGLCTLAFFQLEPWNDPVCRDLTRTFEHAIYAQYQQG",Km,[5],560 ± 50 µM
same,kcat,[5],0.0035 ± 0.00017 s⁻¹
same,Km,[6],670 ± 40 µM
